Source: ChEMBL document CHEMBL6109062, “Novel tertiary diarylethylamines as functionally selective agonists of the kappa opioid receptor” (Bioorg Med Chem Lett, 2025)

Assays:
[1] = Clearance in rat; assay type: ADME; conditions: in vivo
in vivo [2] = conditions: rat, po
in vitro [3] = conditions: human, liver microsomes
in vivo [4] = conditions: rat, po, 10 mg/kg
in vivo [5] = conditions: rat, po, 10 mg/kg; remark: listed apart in the source
in vitro [6] = conditions: rat, liver microsomes
in vitro [7] = conditions: human, hepatocytes
in vitro [8] = conditions: dog, MDCK-MDR1
in vitro [9] = conditions: rat, liver microsomes; remark: listed apart in the source

| clearance [1] | bioavailability (in vivo [2]) | Compound | remaining at 0.25 h (in vitro [3]) | half-life (in vivo [4]) | bioavailability (in vivo [5]) | remaining at 0.25 h (in vitro [6]) | hepatocyte CLint (in vitro [7]) | Papp A→B (in vitro [8]) | remaining at 0.5 h (in vitro [9]) |
| --- | --- | --- | --- | --- | --- | --- | --- | --- | --- |
| 45 mL/min/kg | < 1% | Oc1cccc(CCN(CC2CCC2)C2CN(Cc3ccccc3)C2)c1 | < 5% | – | – | – | – | – | – |
| – | – | c1ccc(CCN(CCc2ccc3nc[nH]c3c2)CC2CC2)cc1 | 77% | 1.2 h | 2.7% | < 5% | 16.7 µL/min/1e6 cells | 5.5 ×10⁻⁶ cm/s | 3% |
| – | – | CC(Cc1ccc2nc[nH]c2c1)N(CCc1ccccc1)CC1CC1 (stereo unspecified) | 70% | – | – | 10% | 22.1 µL/min/1e6 cells | – | – |
| – | – | O=c1[nH]c2ccc(CCN(CCc3ccccc3)CC3CCC3)cc2[nH]1 | 66% | – | – | < 5% | – | – | – |
| – | – | Oc1cccc(CCN(CCc2ccccc2)CC2CCC2)c1 | < 5% | – | – | – | – | – | – |
